{
  "source": "patent US10448639B2",
  "about": "“Fungicidal pyrazoles” (FMC CORPORATION, priority 2009, dated 2019)",
  "key": {"[1]": {"system": "Puccinia recondita f. sp. tritici", "assay": "Test I: wheat leaf rust, preventive spray on wheat seedlings, visual disease rating", "conditions": "for Test I rating (% disease control) / Test I disease control rating: 100 = 100% disease control; for Test I disease control rating: sprayed the day before inoculation, 0 = no disease control relative to controls"}, "Septoria nodorum": {"system": "Septoria nodorum", "assay": "Test F: Septoria glume blotch, preventive spray on wheat seedlings, visual disease rating", "conditions": "for Test F rating (% disease control) / Test F disease control rating: 100 = 100% disease control; for Test F disease control rating: 0 = no disease control relative to controls"}, "Botrytis cinerea": {"system": "Botrytis cinerea", "assay": "Test B: tomato Botrytis, preventive spray on tomato seedlings, visual disease rating", "conditions": "for Test B rating (% disease control) / Test B disease control rating: 100 = 100% disease control; for Test B disease control rating: 0 = no disease control relative to controls", "description": "General protocol for preparing test suspensions for Tests A-J: the test compounds were first dissolved in acetone in an amount equal to 3% of the final volume and then suspended at the desired concentration (in ppm) in acetone and purified water (50/50 mix by volume) containing 250 ppm of the surfactant Trem® 014 (polyhydric alcohol esters). The resulting test suspensions were then used in Tests A-J. Spraying a 200 ppm test suspension to the point of run-off on the test plants was the equivalent of a rate of 500 g/ha. Unless otherwise indicated, the rating values indicate a 200 ppm test suspension was used. (An asterisk “*” next to the rating value indicates a 40 ppm test suspension was used.)\nThe test suspension was sprayed to the point of run-off on tomato seedlings. The following day the seedlings were inoculated with a spore suspension of Botrytis cinerea (the causal agent of tomato Botrytis) and incubated in saturated atmosphere at 20° C. for 48 h, and then moved to a growth chamber at 24° C. for 3 additional days, after which time visual disease ratings were made."}, "[2]": {"system": "Erysiphe graminis f sp. tritici", "assay": "Test J: wheat powdery mildew, preventive spray on wheat seedlings, visual disease rating", "conditions": "for Test J rating (% disease control) / Test J disease control rating: 100 = 100% disease control; for Test J disease control rating: sprayed the day before inoculation, 0 = no disease control relative to controls"}, "[3]": {"system": "Puccinia recondita f. sp. tritici", "assay": "Test H: wheat leaf rust, curative spray on inoculated wheat seedlings, visual disease rating", "conditions": "for Test H disease control rating: sprayed after inoculation, 0 = no disease control relative to controls"}, "Alternaria solani": {"system": "Alternaria solani", "assay": "Test C: tomato early blight, preventive spray on tomato seedlings, visual disease rating", "conditions": "for Test C rating (% disease control) / Test C disease control rating: 100 = 100% disease control; for Test C disease control rating: 0 = no disease control relative to controls"}, "Septoria tritici": {"system": "Septoria tritici", "assay": "Test G: wheat leaf blotch, preventive spray on wheat seedlings, visual disease rating", "conditions": "wheat leaf blotch, preventive spray; 100 = 100% disease control, 0 = no control"}, "[4]": {"conditions": "wheat leaf rust, preventive spray, 0 = no control"}, "[5]": {"conditions": "Septoria glume blotch on wheat, preventive spray, 0 = no control"}, "[6]": {"conditions": "tomato Botrytis, preventive spray, 0 = no control"}, "[7]": {"conditions": "wheat powdery mildew, preventive spray, 0 = no control"}, "[8]": {"conditions": "tomato early blight, preventive spray, 0 = no control"}, "[9]": {"conditions": "wheat leaf rust, 100 = 100% disease control"}},
  "note": "Marks after values point to notes of the source that are not given here.",
  "data": [
    {"molecule": "Cc1nn(C)c(Nc2c(F)cc(Cl)cc2F)c1-c1ccc(F)cc1Cl", "note": "[Compound 286, N-(4-chloro-2,6-difluorophenyl)-4-(2-chloro-4-fluorophenyl)-1,3-dimethyl-1H-pyrazole-5-amine]", "values": [
      {"measurement": "Test I rating (% disease control), marked *", "setting": "[1]; wheat leaf rust, preventive, rating marked with asterisk (*), meaning not given", "result": "100* %"},
      {"measurement": "Test F rating (% disease control), marked *", "setting": "Septoria nodorum; Septoria glume blotch, rating marked with asterisk (*), meaning not given", "result": "60* %"},
      {"measurement": "Test B rating (% disease control), marked *", "setting": "Botrytis cinerea; tomato Botrytis, rating marked with asterisk (*), meaning not given", "result": "98* %"},
      {"measurement": "Test J rating (% disease control), marked *", "setting": "[2]; wheat powdery mildew, rating marked with asterisk (*), meaning not given", "result": "100* %"},
      {"measurement": "Test H rating (% disease control), marked *", "setting": "[3]; wheat leaf rust, curative, rating marked with asterisk (*), meaning not given", "result": "100* %"},
      {"measurement": "Test C rating (% disease control), marked *", "setting": "Alternaria solani; tomato early blight, rating marked with asterisk (*), meaning not given", "result": "85* %"}
    ]},
    {"molecule": "Cc1nn(C)c(Nc2ccc(Cl)c(Cl)c2)c1-c1c(F)cc(C#N)cc1F", "note": "[compound 123]", "values": [
      {"measurement": "Test I rating (% disease control)", "setting": "[1]; [4]", "result": 80, "unit": "%"},
      {"measurement": "Test F rating (% disease control)", "setting": "Septoria nodorum; [5]", "result": 40, "unit": "%"},
      {"measurement": "Test B rating (% disease control)", "setting": "Botrytis cinerea; [6]", "result": 99, "unit": "%"},
      {"measurement": "Test G rating (% disease control)", "setting": "Septoria tritici", "result": 99, "unit": "%"},
      {"measurement": "Test J rating (% disease control)", "setting": "[2]; [7]", "result": 0, "unit": "%"},
      {"measurement": "Test C rating (% disease control)", "setting": "Alternaria solani; [8]", "result": 0, "unit": "%"}
    ]},
    {"molecule": "Cc1ccc(Nc2c(-c3c(F)cc(C#N)cc3F)c(C)nn2C)cc1", "note": "[compound 124]", "values": [
      {"measurement": "Test I rating (% disease control)", "setting": "[1]; [4]", "result": 96, "unit": "%"},
      {"measurement": "Test F rating (% disease control)", "setting": "Septoria nodorum; [5]", "result": 60, "unit": "%"},
      {"measurement": "Test B rating (% disease control)", "setting": "Botrytis cinerea; [6]", "result": 100, "unit": "%"},
      {"measurement": "Test G rating (% disease control)", "setting": "Septoria tritici", "result": 99, "unit": "%"},
      {"measurement": "Test J rating (% disease control)", "setting": "[2]; [7]", "result": 94, "unit": "%"},
      {"measurement": "Test C rating (% disease control)", "setting": "Alternaria solani; [8]", "result": 78, "unit": "%"}
    ]},
    {"molecule": "Cc1nn(C)c(C(O)c2ccc(F)cc2)c1-c1ccc(F)cc1Cl", "note": "(racemic) [compound 350]", "values": [
      {"measurement": "Test I disease control rating", "setting": "[1]; wheat leaf rust", "result": 96, "unit": "%"},
      {"measurement": "Test F disease control rating", "setting": "Septoria nodorum; Septoria glume blotch on wheat", "result": 0, "unit": "%"},
      {"measurement": "Test B disease control rating", "setting": "Botrytis cinerea; tomato Botrytis", "result": 99, "unit": "%"},
      {"measurement": "Test J disease control rating", "setting": "[2]; wheat powdery mildew", "result": 0, "unit": "%"},
      {"measurement": "Test H disease control rating", "setting": "[3]; [9]", "result": 9, "unit": "%"},
      {"measurement": "Test C disease control rating", "setting": "Alternaria solani; tomato early blight", "result": 9, "unit": "%"}
    ]},
    {"molecule": "Cc1nn(C)c(Nc2ccc(Cl)cc2Cl)c1-c1c(F)cccc1Cl", "note": "[compound 283]", "values": [
      {"measurement": "Test I rating (% disease control)", "setting": "[1]; wheat leaf rust, preventive, 0 = no control relative to controls", "result": 99, "unit": "%"},
      {"measurement": "Test F rating (% disease control)", "setting": "Septoria nodorum; Septoria glume blotch, 0 = no control relative to controls", "result": 0, "unit": "%"},
      {"measurement": "Test B rating (% disease control)", "setting": "Botrytis cinerea; tomato Botrytis, 0 = no control relative to controls", "result": 99, "unit": "%"},
      {"measurement": "Test J rating (% disease control)", "setting": "[2]; wheat powdery mildew, 0 = no control relative to controls", "result": 100, "unit": "%"},
      {"measurement": "Test H rating (% disease control)", "setting": "[3]; wheat leaf rust, curative, 100 = 100% disease control, 0 = no control relative to controls", "result": 9, "unit": "%"},
      {"measurement": "Test C rating (% disease control)", "setting": "Alternaria solani; tomato early blight, 0 = no control relative to controls", "result": 65, "unit": "%"}
    ]},
    {"molecule": "Cc1nn(C)c(Nc2c(Cl)cc(F)cc2Cl)c1-c1ccc(F)cc1Cl", "note": "[Compound 369, 4-(2-chloro-4-fluorophenyl)-N-(2,6-dichloro-4-fluorophenyl)-1,3-dimethyl-1H-pyrazol-5-amine]", "values": [
      {"measurement": "pest or weed control at 200 µg/mL", "setting": "[1]; 192 h, read-out: Test I disease control rating", "result": 100, "unit": "%"},
      {"measurement": "pest or weed control at 200 µg/mL", "setting": "Septoria nodorum; Parastagonospora nodorum, in Triticum aestivum, 192 h, read-out: Test F disease control rating", "result": 0, "unit": "%"},
      {"measurement": "pest or weed control at 200 µg/mL", "setting": "Botrytis cinerea; Botrytis cinerea, in Solanum lycopersicum, 120 h, read-out: Test B disease control rating", "result": 100, "unit": "%"},
      {"measurement": "pest or weed control at 200 µg/mL", "setting": "[2]; Blumeria graminis, in Triticum aestivum, 192 h, read-out: Test J disease control rating", "result": 99, "unit": "%"},
      {"measurement": "pest or weed control at 200 µg/mL", "setting": "[3]; 144 h, read-out: Test H disease control rating", "result": 17, "unit": "%"},
      {"measurement": "pest or weed control at 200 µg/mL", "setting": "Alternaria solani; Alternaria solani, in Solanum lycopersicum, 168 h, read-out: Test C disease control rating", "result": 66, "unit": "%"}
    ]},
    {"molecule": "Cc1nn(C)c(Nc2ccc(Cl)c(F)c2)c1-c1c(F)cc(C#N)cc1F", "note": "[compound 125]", "values": [
      {"measurement": "Test I rating (% disease control)", "setting": "[1]; [4]", "result": 92, "unit": "%"},
      {"measurement": "Test F rating (% disease control)", "setting": "Septoria nodorum; [5]", "result": 60, "unit": "%"},
      {"measurement": "Test B rating (% disease control)", "setting": "Botrytis cinerea; [6]", "result": 100, "unit": "%"},
      {"measurement": "Test G rating (% disease control)", "setting": "Septoria tritici", "result": 99, "unit": "%"},
      {"measurement": "Test J rating (% disease control)", "setting": "[2]; [7]", "result": 0, "unit": "%"},
      {"measurement": "Test C rating (% disease control)", "setting": "Alternaria solani; [8]", "result": 67, "unit": "%"}
    ]},
    {"molecule": "Cc1nn(C)c(Nc2ccc(Cl)c(F)c2)c1-c1c(F)cc(F)cc1F", "note": "[compound 14]", "values": [
      {"measurement": "Test I rating (% disease control)", "setting": "[1]; [4]", "result": 99, "unit": "%"},
      {"measurement": "Test F rating (% disease control)", "setting": "Septoria nodorum; [5]", "result": 0, "unit": "%"},
      {"measurement": "Test B rating (% disease control)", "setting": "Botrytis cinerea; [6]", "result": 98, "unit": "%"},
      {"measurement": "Test G rating (% disease control)", "setting": "Septoria tritici", "result": 99, "unit": "%"},
      {"measurement": "Test J rating (% disease control)", "setting": "[2]; [7]", "result": 98, "unit": "%"},
      {"measurement": "Test C rating (% disease control)", "setting": "Alternaria solani; [8]", "result": 0, "unit": "%"}
    ]},
    {"molecule": "Cc1nn(C)c(Nc2c(F)cc(F)cc2Cl)c1-c1ccc(Cl)cc1Cl", "note": "[compound 391]", "values": [
      {"measurement": "Test I disease control rating", "setting": "[1]; wheat leaf rust", "result": 99, "unit": "%"},
      {"measurement": "Test F disease control rating", "setting": "Septoria nodorum; Septoria glume blotch on wheat", "result": 73, "unit": "%"},
      {"measurement": "Test B disease control rating", "setting": "Botrytis cinerea; tomato Botrytis", "result": 100, "unit": "%"},
      {"measurement": "Test J disease control rating", "setting": "[2]; wheat powdery mildew", "result": 99, "unit": "%"},
      {"measurement": "Test H disease control rating", "setting": "[3]; [9]", "result": 31, "unit": "%"},
      {"measurement": "Test C disease control rating", "setting": "Alternaria solani; tomato early blight", "result": 99, "unit": "%"}
    ]},
    {"molecule": "COc1ccc(Oc2c(-c3ccc(F)cc3Cl)c(C)nn2C)c(F)c1", "note": "[compound 21]", "values": [
      {"measurement": "Test I rating (% disease control)", "setting": "[1]; [4]", "result": 100, "unit": "%"},
      {"measurement": "Test F rating (% disease control)", "setting": "Septoria nodorum; [5]", "result": 97, "unit": "%"},
      {"measurement": "Test B rating (% disease control)", "setting": "Botrytis cinerea; [6]", "result": 98, "unit": "%"},
      {"measurement": "Test J rating (% disease control)", "setting": "[2]; [7]", "result": 99, "unit": "%"},
      {"measurement": "Test C rating (% disease control)", "setting": "Alternaria solani; [8]", "result": 100, "unit": "%"}
    ]},
    {"molecule": "COc1ccc(-c2c(C)nn(C)c2Oc2ccc(Cl)cc2)c(F)c1", "note": "[compound 15]", "values": [
      {"measurement": "Test I rating (% disease control)", "setting": "[1]; [4]", "result": 98, "unit": "%"},
      {"measurement": "Test F rating (% disease control)", "setting": "Septoria nodorum; [5]", "result": 73, "unit": "%"},
      {"measurement": "Test B rating (% disease control)", "setting": "Botrytis cinerea; [6]", "result": 99, "unit": "%"},
      {"measurement": "Test G rating (% disease control)", "setting": "Septoria tritici", "result": 99, "unit": "%"},
      {"measurement": "Test J rating (% disease control)", "setting": "[2]; [7]", "result": 99, "unit": "%"},
      {"measurement": "Test C rating (% disease control)", "setting": "Alternaria solani; [8]", "result": 67, "unit": "%"}
    ]}
  ]
}
